Results reported in PubChem BioAssay AID330 (DTP/NCI, 2004).
Values joined by “and” are separate entries in the source; they are usually repeats but may differ in a detail not shown here. Equal values may be shown once. Inconclusive results and toxic doses are left out. How the source made its calls: active means survival T/C of 150% or more; inactive means T/C below 125% in these data.

Tested on: P388 leukemia ip, CD2F1 mice, survival T/C
Experiment: NCI In Vivo Anticancer Drug Screen. Data for tumor model P388 Leukemia (intraperitoneal) in CD2F1 (CDF1) mice
Conditions: endpoint: median survival time, higher = longer survival
Outline: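 Mice carrying the transplanted tumor received test compound or vehicle. Survival was recorded in each group, and the value is the treated-group measurement divided by that of the vehicle-treated control group.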

[1] = dose: 50.0 mg/kg/injection, schedule: Q01DX005 (ip), vehicle: Klucel (hydroxypropylcellulose) (HPC)
[2] = dose: 100.0 mg/kg/injection, schedule: Q01DX005 (ip), vehicle: Klucel (hydroxypropylcellulose) (HPC)
[3] = dose: 200.0 mg/kg/injection, schedule: Q01DX005 (ip), vehicle: Klucel (hydroxypropylcellulose) (HPC)
[4] = dose: 50.0 mg/kg/injection, schedule: Q01DX009 (ip), vehicle: saline with Tween-80
[5] = dose: 100.0 mg/kg/injection, schedule: Q01DX009 (ip), vehicle: saline with Tween-80
[6] = dose: 200.0 mg/kg/injection, schedule: Q01DX009 (ip), vehicle: saline with Tween-80
[7] = dose: 50.0 mg/kg/injection, schedule: Q01DX009 (ip), vehicle: Klucel (hydroxypropylcellulose) (HPC)
[8] = dose: 100.0 mg/kg/injection, schedule: Q01DX009 (ip), vehicle: Klucel (hydroxypropylcellulose) (HPC)
[9] = dose: 200.0 mg/kg/injection, schedule: Q01DX009 (ip), vehicle: Klucel (hydroxypropylcellulose) (HPC)

Measured: T/C

O=C1C2=C(C(=O)c3cnccc31)C1C=CC2CC1 (stereo unspecified)
inactive: dose: 25.0 mg/kg/injection, schedule: Q01DX005 (ip), vehicle: DMSO 98 % of control | dose: 50.0 mg/kg/injection, schedule: Q01DX005 (ip), vehicle: DMSO 92 % of control and 98 % of control | [1] 106 % of control | dose: 100.0 mg/kg/injection, schedule: Q01DX005 (ip), vehicle: DMSO 122 % of control | [2] 103 % of control | [3] 98 % of control

CCCCC/C(=N\Nc1ccc([N+](=O)[O-])cc1[N+](=O)[O-])c1ccccc1
inactive: dose: 50.0 mg/kg/injection, schedule: Q01DX001 (ip), vehicle: saline with Tween-80 105 % of control | dose: 100.0 mg/kg/injection, schedule: Q01DX001 (ip), vehicle: saline with Tween-80 95 % of control | dose: 200.0 mg/kg/injection, schedule: Q01DX001 (ip), vehicle: saline with Tween-80 95 % of control

O=C1c2ccccc2-c2nc3ccccc3n21
inactive: dose: 100.0 mg/kg/injection, schedule: Q01DX001 (ip), vehicle: saline 100 % of control | dose: 100.0 mg/kg/injection, schedule: Q04DX002 (ip), vehicle: saline with Tween-80 100 % of control | dose: 200.0 mg/kg/injection, schedule: Q01DX001 (ip), vehicle: saline 108 % of control | dose: 200.0 mg/kg/injection, schedule: Q04DX002 (ip), vehicle: saline with Tween-80 106 % of control | dose: 400.0 mg/kg/injection, schedule: Q01DX001 (ip), vehicle: saline 106 % of control | dose: 400.0 mg/kg/injection, schedule: Q04DX002 (ip), vehicle: saline with Tween-80 100 % of control

COc1cccc2c1C(=O)c1c(O)c3c(c(O)c1C2=O)CC(NO)CC3OC1CC(NC(=O)C(F)(F)F)C(O)C(C)O1 (stereo unspecified)
inactive: dose: 1.56 mg/kg/injection, schedule: Q01DX009 (ip), vehicle: other 103 % of control and 101 % of control | dose: 3.13 mg/kg/injection, schedule: Q01DX009 (ip), vehicle: other 104 % of control and 106 % of control | dose: 6.25 mg/kg/injection, schedule: Q01DX009 (ip), vehicle: other 108 % of control and 110 % of control | dose: 12.5 mg/kg/injection, schedule: Q01DX009 (ip), vehicle: other 113 % of control | dose: 25.0 mg/kg/injection, schedule: Q01DX009 (ip), vehicle: other 116 % of control and 107 % of control

c1ncn(Sn2cncn2)n1
inactive: dose: 8.75 mg/kg/injection, schedule: Q01DX005 (ip), vehicle: Klucel (hydroxypropylcellulose) (HPC) 100 % of control | dose: 17.5 mg/kg/injection, schedule: Q01DX005 (ip), vehicle: Klucel (hydroxypropylcellulose) (HPC) 101 % of control | dose: 35.0 mg/kg/injection, schedule: Q01DX005 (ip), vehicle: Klucel (hydroxypropylcellulose) (HPC) 104 % of control

CCOC(=O)C(C)Oc1ccc(Cl)cc1 (stereo unspecified)
inactive: dose: 25.0 mg/kg/injection, schedule: Q01DX009 (ip), vehicle: water 99 % of control | dose: 50.0 mg/kg/injection, schedule: Q01DX009 (ip), vehicle: water 102 % of control | dose: 100.0 mg/kg/injection, schedule: Q01DX009 (ip), vehicle: water 102 % of control | dose: 200.0 mg/kg/injection, schedule: Q01DX009 (ip), vehicle: water 98 % of control | dose: 400.0 mg/kg/injection, schedule: Q01DX009 (ip), vehicle: water 107 % of control

O=C(O)c1cc2cc3c(cc2c2ccccc12)OCO3
inactive: [1] 100 % of control | [2] 106 % of control | [3] 108 % of control

Nc1nc2nc(CBr)c(CBr)nc2c(=O)[nH]1
inactive: dose: 25.0 mg/kg/injection, schedule: Q01DX009 (ip), vehicle: saline with Tween-80 115 % of control | [4] 118 % of control | [5] 122 % of control | [6] 100 % of control

Clc1nc2cc3c(cc2n2cccc12)oc1ccccc13
inactive: dose: 25.0 mg/kg/injection, schedule: Q01DX005 (ip), vehicle: saline with Tween-80 108 % of control | dose: 50.0 mg/kg/injection, schedule: Q01DX005 (ip), vehicle: saline with Tween-80 110 % of control | dose: 100.0 mg/kg/injection, schedule: Q01DX005 (ip), vehicle: saline with Tween-80 110 % of control | dose: 200.0 mg/kg/injection, schedule: Q01DX005 (ip), vehicle: saline with Tween-80 110 % of control

N#CCCN(CCC#N)c1ccc(CC2C(=O)N(c3cccc(S(=O)(=O)O)c3)N=C2C(=O)O)cc1 (stereo unspecified)
inactive: dose: 60.0 mg/kg/injection, schedule: Q01DX005 (ip), vehicle: saline with Tween-80 93 % of control | dose: 120.0 mg/kg/injection, schedule: Q01DX005 (ip), vehicle: saline with Tween-80 96 % of control | dose: 240.0 mg/kg/injection, schedule: Q01DX005 (ip), vehicle: saline with Tween-80 95 % of control

CCCCN(CCCC)CCCC(C(C)=O)C(=O)OCC (stereo unspecified)
inactive: [1] 102 % of control | [2] 104 % of control

COP(=O)(O)OC.[Th]
inactive: [4] 118 % of control | [5] 88 % of control | [6] 90 % of control

COc1cc(CC2COC(O)C2(O)Cc2ccc(O)c(OC)c2)ccc1O (stereo unspecified)
inactive: dose: 8.25 mg/kg/injection, schedule: Q01DX005 (ip), vehicle: Klucel (hydroxypropylcellulose) (HPC) 101 % of control | dose: 16.5 mg/kg/injection, schedule: Q01DX005 (ip), vehicle: Klucel (hydroxypropylcellulose) (HPC) 101 % of control | dose: 33.0 mg/kg/injection, schedule: Q01DX005 (ip), vehicle: Klucel (hydroxypropylcellulose) (HPC) 106 % of control | dose: 66.0 mg/kg/injection, schedule: Q01DX005 (ip), vehicle: Klucel (hydroxypropylcellulose) (HPC) 92 % of control

Nc1nc(N)c2ncn(Cc3c(Cl)cccc3Cl)c2n1
inactive: dose: 50.0 mg/kg/injection, schedule: Q01DX005 (ip), vehicle: distilled water + alcohol 95 % of control | dose: 100.0 mg/kg/injection, schedule: Q01DX005 (ip), vehicle: distilled water + alcohol 97 % of control | dose: 200.0 mg/kg/injection, schedule: Q01DX005 (ip), vehicle: distilled water + alcohol 93 % of control

COC1C(/C=C2\CC(=O)N(c3ccccc3)C2=O)OC2OC(C)(C)OC21 (stereo unspecified)
inactive: dose: 100.0 mg/kg/injection, schedule: Q01DX001 (ip), vehicle: suspension in saline 97 % of control | dose: 200.0 mg/kg/injection, schedule: Q01DX001 (ip), vehicle: suspension in saline 102 % of control | dose: 400.0 mg/kg/injection, schedule: Q01DX001 (ip), vehicle: suspension in saline 100 % of control

COc1ccc(CSC(=S)Nc2ccc(F)cc2F)cc1
inactive: [7] 99 % of control | dose: 50.0 mg/kg/injection, schedule: Q01DX009 (ip), vehicle: suspension in saline 106 % of control | [8] 107 % of control | dose: 100.0 mg/kg/injection, schedule: Q01DX009 (ip), vehicle: suspension in saline 100 % of control | [9] 112 % of control | dose: 200.0 mg/kg/injection, schedule: Q01DX009 (ip), vehicle: suspension in saline 98 % of control

COc1ccc(C2CCCC(CCc3ccc(O)cc3)O2)cc1 (stereo unspecified)
inactive: [1] 100 % of control | [2] 103 % of control | [3] 100 % of control

CC(C)c1ccc(C(=O)O)cc1
inactive: [4] 103 % of control | [5] 103 % of control | [6] 115 % of control

Cc1[nH]nc2c(Cc3ccco3)n[nH]c(=O)c12
inactive: [7] 101 % of control | [8] 100 % of control | [9] 100 % of control

CCNC(=O)n1cccc(OC)c1=O
inactive: dose: 50.0 mg/kg/injection, schedule: Q01DX009 (ip), vehicle: saline 101 % of control and 107 % of control | dose: 100.0 mg/kg/injection, schedule: Q01DX009 (ip), vehicle: saline 109 % of control and 114 % of control and 119 % of control | dose: 200.0 mg/kg/injection, schedule: Q01DX009 (ip), vehicle: saline 111 % of control and 116 % of control | dose: 300.0 mg/kg/injection, schedule: Q01DX009 (ip), vehicle: saline 109 % of control
